Structures can show the parent of a compound that is named as a salt.
Target: T1, abc isoform of human TMEM16A channel expressed in CHO cells (Homo sapiens, UniProt Q5XXA6, DEL476-501)
T1 construct: expressed in transfected cells; host or cells: CHO cells, doxycycline-inducible expression under Blasticidin/Zeocin selection
T1 sequence (Q5XXA6 with tags, fused parts or gaps isoform Q5XXA6-5 DEL539-564): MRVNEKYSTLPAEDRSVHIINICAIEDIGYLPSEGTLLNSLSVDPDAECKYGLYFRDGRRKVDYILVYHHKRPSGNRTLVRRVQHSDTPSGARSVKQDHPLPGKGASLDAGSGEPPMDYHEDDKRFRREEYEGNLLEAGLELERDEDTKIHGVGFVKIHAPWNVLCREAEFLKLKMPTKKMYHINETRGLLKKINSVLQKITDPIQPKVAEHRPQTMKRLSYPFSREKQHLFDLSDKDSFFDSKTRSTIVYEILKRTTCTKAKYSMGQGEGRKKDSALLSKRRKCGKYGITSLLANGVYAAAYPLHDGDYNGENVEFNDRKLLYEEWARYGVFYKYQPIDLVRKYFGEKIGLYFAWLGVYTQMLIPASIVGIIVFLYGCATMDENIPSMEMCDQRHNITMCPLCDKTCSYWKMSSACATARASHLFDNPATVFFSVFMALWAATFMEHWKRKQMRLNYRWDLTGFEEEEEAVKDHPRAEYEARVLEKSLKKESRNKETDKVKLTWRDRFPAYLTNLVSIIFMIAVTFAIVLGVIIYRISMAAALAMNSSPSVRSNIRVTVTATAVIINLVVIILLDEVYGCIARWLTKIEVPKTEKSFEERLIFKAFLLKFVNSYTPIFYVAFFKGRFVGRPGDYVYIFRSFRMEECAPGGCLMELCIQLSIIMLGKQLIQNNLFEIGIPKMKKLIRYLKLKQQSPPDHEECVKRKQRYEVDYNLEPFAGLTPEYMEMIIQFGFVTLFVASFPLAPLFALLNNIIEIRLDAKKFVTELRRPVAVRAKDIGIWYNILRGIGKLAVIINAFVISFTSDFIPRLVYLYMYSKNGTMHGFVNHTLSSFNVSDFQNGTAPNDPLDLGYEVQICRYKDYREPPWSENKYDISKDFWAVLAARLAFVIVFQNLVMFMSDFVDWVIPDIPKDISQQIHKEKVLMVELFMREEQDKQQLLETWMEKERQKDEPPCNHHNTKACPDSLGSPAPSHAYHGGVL
Experiment: Automated patch clamping (QPatch) assay to measure TMEM16A activity in whole-cell
Assay type: cell-based
Conditions: for EC50: CHO cells expressing human TMEM16A (abc), whole-cell automated patch clamp, Hill fit, read-out: TMEM16A QPATCH assay EC50 V3 EC50; for Emax: CHO, read-out: TMEM16A QPATCH assay EC50 V3 Assay Window (% TMEM16A max activation)
In short: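 Whole-cell currents were recorded by planar automated patch clamp from induced CHO cells (doxycycline 1 μg/mL, 18-24 h), using a −70 mV hold, +70 mV step and −90 to +70 mV ramp. Values: Hill-fitted EC50, and activation scaled between vehicle current and reference-potentiator maximum; 0.3% DMSO final.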

[1] = maximum current at highest dose relative to reference potentiator at maximal concentration (upper limit) and vehicle (lower limit)

Row | Compound | EC50 | Emax [1] | TMEM16A QPATCH assay EC50 V3 Assay Window (% TMEM16A max activation) [1]
1 | CCC(CC)NC(=O)c1cc(-c2cccc(-c3ncc(C(=O)N[C@@H](CC(C)C)C(=O)OC)o3)c2)[nH]n1 [Example 1.26, (S)-Methyl 4-Methyl-2-(2-(3-(3-(Pentan-3-Ylcarbamoyl)-1H-Pyrazol-5-yl)Phenyl)Oxazole-5-Carboxamido)Pentanoate] | 0.64 µM | 91% | 
2 | CCC(CC)NC(=O)c1cnc(-c2cccc(-c3cc(C(=O)NC(Cc4ccccc4)C(=O)OC)n[nH]3)c2)o1 (stereo not drawn) [Example 3.28, Methyl 2-(5-(3-(5-(Pentan-3-Ylcarbamoyl)Oxazol-2-Yl)Phenyl)-1H-Pyrazole-3-Carboxamido)-3-Phenylpropanoate] | 0.35 µM | 84% | 
3 | CCC(CC)NC(=O)c1cc(-c2cccc(-c3ncc(C(=O)N[C@@H](C)c4ccccc4)o3)c2)[nH]n1 [Example 1.21, (S)-2-(3-(3-(Pentan-3-Ylcarbamoyl)-1H-Pyrazol-5-Yl)Phenyl)-N-(1-Phenylethyl)Oxazole-5-Carboxamide] | 0.93 µM | 92% | 
4 | CCC(CC)NC(=O)c1cnc(-c2cccc(-c3cc(C(=O)N[C@@H](COC(C)(C)C)C(=O)OC(C)(C)C)n[nH]3)c2)o1 [Example 3.61, (S)-Tert-Butyl 3-(Tert-Butoxy)-2-(5-(3-(5-(Pentan-3-Ylcarbamoyl)Oxazol-2-Yl)Phenyl)-1 H-Pyrazole-3-Carboxamido)Propanoate Trifluoroacetate] | 0.13 µM | 123% | 
5 | CCOC(=O)[C@@H](NC(=O)c1cc(-c2cccc(-c3ncc(C(=O)NC(CC)CC)o3)c2)nn1CCO)C(C)C [Example 5.0, (S)-ethyl 2-(1-(2-hydroxyethyl)-3-(3-(5-(pentan-3-ylcarbamoyl)oxazol-2-yl)phenyl)-1 H-pyrazole-5-carboxamido)-3-methylbutanoate] | 0.04 µM | 110% | 
6 | CCC(CC)NC(=O)c1cc(-c2cccc(-c3ncc(C(=O)N[C@H](C(=O)OC)C(C)C)o3)c2)[nH]n1 [Example 1.47, (S)-Methyl 3-Methyl-2-(2-(3-(3-(Pentan-3-Ylcarbamoyl)-1H-Pyrazol-5-yl)Phenyl)Oxazole-5-Carboxamido)Butanoate] | 0.15 µM | 75% | 
7 | CCC(CC)NC(=O)c1cnc(-c2cccc(-c3cc(C(=O)N[C@@H](C#N)CC)n[nH]3)c2)o1 (single isomer, unassigned) [Example 3.26, (R)-2-(3-(3-((1-Cyanopropyl)Carbamoyl)-1H-Pyrazol-5-Yl)Phenyl)-N-(Pentan-3-Yl)Oxazole-5-Carboxamide or (S)-2-(3-(3-((1-Cyanopropyl)Carbamoyl)-1H-Pyrazol-5-Yl)Phenyl)-N-(Pentan-3-Yl)Oxazole-5-Carboxamide] | 0.24 µM |  | 109%
8 | CCC(CC)NC(=O)c1cc(-c2cccc(-c3ncc(C(=O)NCc4ccccc4)o3)c2)[nH]n1 [Example 1.19, N-Benzyl-2-(3-(3-(Pentan-3-Ylcarbamoyl)-1H-Pyrazol-5-Yl)Phenyl)Oxazole-5-Carboxamide] | 0.13 µM | 69% | 
9 | CCC(CC)NC(=O)c1cnc(-c2cccc(-c3cc(C(=O)NCC4(C)CC4)n[nH]3)c2)o1 [Example 3.13, 2-(3-(3-(((1-Methylcyclopropyl)Methyl)Carbamoyl)-1H-Pyrazol-5-Yl)Phenyl)-N-(Pentan-3-Yl)Oxazole-5-Carboxamide] | 0.07 µM | 70% | 
10 | COC(=O)[C@@H](NC(=O)c1cnc(-c2cccc(-c3cc(C(=O)NC(C4CC4)C4CC4)n(CCO)n3)c2)o1)C(C)C [Example 4.3, (S)-Methyl 2-(2-(3-(5-((Dicyclopropylmethyl)Carbamoyl)-1-(2-Hydroxyethyl)-1H-Pyrazol-3-Yl)Phenyl)Oxazole-5-Carboxamido)-3-Methylbutanoate] | 0.09 µM | 167% | 
11 | CCC(CC)NC(=O)c1cnc(-c2cccc(-c3nc(C(=O)NC(CC)CC)n(CCNCc4ccccc4)n3)c2)o1 [Example 15.6, 2-(3-(1-(2-(Benzylamino)Ethyl)-5-(Pentan-3-Ylcarbamoyl)-1H-1,2,4-Triazol-3-Yl)Phenyl)-N-(Pentan-3-Yl)Oxazole-5-Carboxamide] | 0.33 µM | 154% | 
12 | COC(=O)[C@@H](NC(=O)c1nc(-c2cccc(-c3ncc(C(=O)NC(C4CC4)C4CC4)o3)c2)n[nH]1)C(C)C [Example 13.7, (S)-Methyl 2-(3-(3-(5-((Dicyclopropylmethyl)Carbamoyl)Oxazol-2-Yl)Phenyl)-1H-1,2,4-Triazole-5-Carboxamido)-3-Methylbutanoate] | 0.47 µM | 121% | 
13 | CCC(CC)NC(=O)c1cnc(-c2cccc(-c3cc(C(=O)N[C@H](C)C4CC4)n(CCO)n3)c2)o1 [Example 5.1, (R)-2-(3-(5-((1-Cyclopropylethyl)Carbamoyl)-1-(2-Hydroxyethyl)-1H-Pyrazol-3-Yl)Phenyl)-N-(Pentan-3-Yl)Oxazole-5-Carboxamide] | 0.32 µM | 125% | 
14 | CCC(CC)NC(=O)c1cc(-c2cccc(-c3ncc(C(=O)N[C@@H](COC(C)(C)C)C(=O)OC(C)(C)C)o3)c2)[nH]n1 [Example 1.50, (S)-Tert-Butyl 3-(Tert-Butoxy)-2-(2-(3-(3-(Pentan-3-Ylcarbamoyl)-1H-Pyrazol-5-Yl)Phenyl)Oxazole-5-Carboxamido)Propanoate Trifluoroacetate] | 0.45 µM | 115% | 
15 | CCC(CC)NC(=O)c1cc(-c2cccc(-c3ncc(C(=O)N[C@@H](C)C(=O)OCc4ccccc4)o3)c2)[nH]n1 [Example 1.41, (S)-Benzyl 2-(2-(3-(3-(Pentan-3-Ylcarbamoyl)-1H-Pyrazol-5-yl)Phenyl)Oxazole-5-Carboxamido)Propanoate] | 0.95 µM | 75% | 
16 | C[C@H](NC(=O)c1nnc(-c2cccc(-c3ncc(C(=O)NC(C4CC4)C4CC4)o3)c2)[nH]1)C1CC1 [Example 12.5, (S)-2-(3-(5-((1-Cyclopropylethyl)Carbamoyl)-4H-1,2,4-Triazol-3-Yl)Phenyl)-N-(Dicyclopropylmethyl)Oxazole-5-Carboxamide] | 0.03 µM | 92% | 
17 | CCOC(=O)[C@@H](NC(=O)c1cnc(-c2cccc(-c3cc(C(=O)NC(C4CC4)C4CC4)n(CC(C)(C)O)n3)c2)o1)C(C)C [Example 9.6, (S)-Ethyl 2-(2-(3-(5-((Dicyclopropylmethyl)Carbamoyl)-1-(2-Hydroxy-2-Methylpropyl)-1 H-Pyrazol-3-Yl)Phenyl)Oxazole-5-Carboxamido)-3-Methylbutanoate] | 0.03 µM | 100% | 
18 | CCC(CC)NC(=O)c1cnc(-c2cccc(-c3cc(C(=O)N[C@@H](C)C4CC4)n(C)n3)c2)o1 [Example 6.2, (S)-2-(3-(5-((1-Cyclopropylethyl)Carbamoyl)-1-Methyl-1H-Pyrazol-3-Yl)Phenyl)-N-(Pentan-3-Yl)Oxazole-5-Carboxamide] | 0.05 µM | 131% | 
19 | CCC(CC)NC(=O)c1cnc(-c2cccc(-c3cc(C(=O)N[C@@H](CC(C)C)C(=O)NCC(=O)OC(C)(C)C)n[nH]3)c2)o1 [Example 3.57, (S)-Tert-Butyl 2-(4-Methyl-2-(5-(3-(5-(Pentan-3-Ylcarbamoyl)Oxazol-2-Yl)Phenyl)-1H-Pyrazole-3-Carboxamido)Pentanamido)Acetate] | 0.65 µM | 111% | 
20 | CCOC(=O)C(C)(C)NC(=O)c1cnc(-c2cccc(-c3cc(C(=O)NC(CC)CC)n[nH]3)c2)o1 [Example 1.51, Ethyl 2-Methyl-2-(2-(3-(3-(Pentan-3-Ylcarbamoyl)-1H-Pyrazol-5-Yl)Phenyl)Oxazole-5-Carboxamido)Propanoate Trifluoroacetate] | 0.98 µM | 64% | 
21 | C[C@@H](NC(=O)c1cnc(-c2cccc(-c3cc(C(=O)N[C@H](C)C4CC4)n(CCO)n3)c2)o1)C1CC1 [Example 10.1, N-((R)-1-Cyclopropylethyl)-2-(3-(5-(((R)-1-Cyclopropylethyl)Carbamoyl)-1-(2-Hydroxyethyl)-1H-Pyrazol-3-yl)Phenyl)Oxazole-5-Carboxamide] | 0.32 µM | 101% | 

From patent publication US20220306617A1, “SUBSTITUTED 1,3-PHENYL HETEROARYL DERIVATIVES AND THEIR USE IN THE TREATMENT OF DISEASE” (NOVARTIS AG, priority 2019, published 2022)
